Test [1] deals with T1, Enoyl-[acyl-carrier-protein] reductase [NADH] (Mycobacterium tuberculosis, UniProt P9WGR1).
T1 sequence (P9WGR1 whole entry): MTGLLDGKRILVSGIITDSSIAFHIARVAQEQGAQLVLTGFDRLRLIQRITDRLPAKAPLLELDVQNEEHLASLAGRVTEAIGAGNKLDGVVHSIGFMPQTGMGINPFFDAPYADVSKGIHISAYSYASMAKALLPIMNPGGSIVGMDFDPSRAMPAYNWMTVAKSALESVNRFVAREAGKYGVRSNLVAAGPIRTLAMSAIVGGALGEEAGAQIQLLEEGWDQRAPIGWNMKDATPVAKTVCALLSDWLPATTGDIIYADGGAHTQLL
The experiment in a line: Inhibition of Mycobacterium tuberculosis Enoyl-[acyl-carrier-protein] reductase.

Test [2] is described as follows: Inhibition of Mycobacterium tuberculosis acyl-CoA corboxylase corboxyltransferase domain 5.

With `CCCCCCCCc1ccc(Oc2ccccc2)c(O)c1`, in test [1], affinity was put at a Ki of 1 nM.

For the compound `Nc1ccc(/N=N/c2ccc(-c3ccc(O)cc3)cc2)c2ccc(S(=O)(=O)O)cc12`, in test [2], the Ki – broadly, a dissociation constant, usually derived from enzyme kinetics or from competition with a known ligand – worked out at 13 µM. This lies in the double-digit micromolar range.

The values are drawn from ChEMBL document CHEMBL1149916, “Natural products, small molecules, and genetics in tuberculosis drug development” (J Med Chem, 2008).
